Measurements as given in ChEMBL document CHEMBL3217475, “INPHARMA-based identification of ligand binding site in fragment-based drug design” (Medchemcomm, 2012).
pIC50: −log10 of the molar value.

Experiment: Inhibition of glycogen phosphorylase (unknown origin) by INPHARMA method
Parameters: species or system Homo sapiens

Row | SMILES | pIC50
1 | CN1CC[C@H](c2c(O)cc(O)c3c(=O)cc(-c4ccccc4Cl)oc23)[C@H](O)C1 [ALVOCIDIB] | 6.00
2 | Cn1c(=O)c2c(ncn2C)n(C)c1=O [CAFFEINE] | 4.00
